The target of test [1] is T1, Nuclear receptor subfamily 5 group A member 2 (Homo sapiens, UniProt O00482). Put plainly: Antagonist activity at human LRH-1.
The target of test [2] is T1, Nuclear receptor subfamily 5 group A member 2. Put plainly: Antagonist activity at human recombinant LRH-1 LBD ([…] to 541 residues).
The target is the same in test [3]. Put plainly: Inhibition of full length LRH1 transfected in HEK293T cells incubated for 20 hrs by luciferase reporter assay. In kind it is cell-based.
Test [4] shares this target. Put plainly: Inhibition of full length LRH1 in HEK293T cells at 10 uM incubated for 20 hrs by luciferase reporter assay relative to control. In kind it is cell-based. (Reporter assays use an easily measured gene product as a stand-in for the process of interest.)
The target is the same in test [5]. Description: Inhibition of full length LRH1 in HEK293T cells at 550 nM incubated for 20 hrs by luciferase reporter assay relative to control. In kind it is cell-based.

The term IC50 denotes the concentration that inhibits the measured activity by half. The term inhibition denotes the share of the control response that was lost under treatment. Lower therefore signals a weak effect.

The structures appear in SMILES notation.

T1 sequence (O00482 whole entry, the tested form may be a part): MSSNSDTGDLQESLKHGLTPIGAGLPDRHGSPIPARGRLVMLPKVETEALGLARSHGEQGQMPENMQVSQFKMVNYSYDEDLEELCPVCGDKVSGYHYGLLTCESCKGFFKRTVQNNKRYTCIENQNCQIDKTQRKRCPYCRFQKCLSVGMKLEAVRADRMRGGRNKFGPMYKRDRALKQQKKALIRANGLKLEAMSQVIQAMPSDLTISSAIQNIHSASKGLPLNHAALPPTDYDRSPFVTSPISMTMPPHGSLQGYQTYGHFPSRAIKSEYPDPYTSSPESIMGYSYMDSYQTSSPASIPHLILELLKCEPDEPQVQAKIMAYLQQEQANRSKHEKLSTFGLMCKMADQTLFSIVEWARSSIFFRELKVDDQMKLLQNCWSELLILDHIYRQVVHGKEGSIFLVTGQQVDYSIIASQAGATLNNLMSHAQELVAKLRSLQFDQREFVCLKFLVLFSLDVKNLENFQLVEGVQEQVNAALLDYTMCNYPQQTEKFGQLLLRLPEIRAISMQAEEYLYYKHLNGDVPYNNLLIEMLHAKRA

Regarding `CC(=O)c1cccc(-c2cccc(-c3ccn(CCN4CCOCC4)n3)c2)c1`, the half-inhibitory concentration (IC50) in test [1] was found to be 5 µM.

On to `O=C(c1ccc(OCCN2CCCCC2)cc1)c1c(-c2ccc(O)cc2)sc2c(C(=O)c3ccc(OCCN4CCCCC4)cc3)c(O)ccc12`, for which the 50% inhibitory concentration (IC50) in test [2] was 3.1 µM.

In turn, `Cc1nc(N(C)C)nc(-c2cccc(-c3ccn(CCN(C)C)n3)c2)c1C` displayed a half-maximal inhibitory concentration (IC50) in test [1] of 6 µM.

In turn, `O=c1cc(N2CCN(c3cccc(Cl)c3)CC2)[nH]c(=O)n1C1CCCCC1` came in with an IC50 in test [3] of 3.7 µM. Further, the inhibition in test [4] was determined as 64%.

For `O=c1cc(N2CCN(c3cccc(C(F)(F)F)c3)CC2)[nH]c(=O)n1C1CCCCC1`, half-maximal inhibition in test [3] (IC50) required 0.32 µM. In addition, the inhibition in test [5] was determined as 40%.

Values taken from ChEMBL document CHEMBL5226354, “The Medicinal Chemistry and Therapeutic Potential of LRH-1 Modulators” (J Med Chem, 2021).
